From patent publication US20110178100A1, “APOPTOSIS INHIBITOR” (NIHON UNIVERSITY, priority 2008, published 2011)
“Also recorded” adds a separate entry of the source.

Assays:
[1] = test system: hippocampal CA1 region; assay: Mouse cerebral ischemia/reperfusion model, FJB and ssDNA staining of hippocampal CA1 region; format: in vivo, C57BL/6J mice; settings: 72 hours after reperfusion
Method: Male C57BL/6J mice (9-12 week old) were used. After halothane anesthesia, the left and right common carotid arteries were ligated for 17 minutes while the cerebral blood flow was monitored. Then, the blood flow was resumed to prepare a cerebral ischemia/reperfusion model. Paraffin sections of the brain were prepared 72 hours after reperfusion according to an ordinary method and immunostained with Fluoro Jade B (FJB) that stains dead cells green or with single-stranded DNA (ssDNA) that permits detection of apoptosis cells by the staining of nuclear fragmentation. The cells were observed under a microscope. GR103691 was administered at a dose of 1, 3, or 10 mg/kg from the tail vein of each mouse within 10 minutes after reperfusion. Moreover, for comparison, edaravone (manufactured by CALBIOCHEM) used for improving neurological symptoms, problems with movement of daily living, and dysfunction at the acute stage of brain infarction was administered at a dose of 3 or 10 mg/kg to each mouse. A saline-administered group and a sham group without only ischemia treatment were observed as controls.
In FIG. 7, the bright green color represents apoptosis cells. Moreover, the number of FJB-positive cells was counted to determine its proportion to the total number of cells (FIG. 8). The results of each group are indicated as mean±standard error.

[2] = test system: HT22 cells; assay: Hypoxia/reoxygenation-induced cell death, LDH release assay; format: cell-based
Method: (§1) HT22 cells were cultured in DMEM containing 10% FBS in a 10% CO2 incubator at 37° C.
(§2) Hypoxia loading was performed by using an oxygen absorber/CO2 generator AnaeroPack Kenki For Cell™, and reoxygenation was performed by restoring the condition to normoxia.
LDH assay was conducted using a supernatant of a medium of cells treated as intended as a sample and a measurement kit (LDH cytotoxic test).
Specifically, the cells were cultured in a 96-well assay plate and treated as intended. Then, 50 μL of only the medium was collected and transferred to a newly prepared plate. A coloring reagent was added to each well. After incubation for 20 minutes, 100 μL of a reaction stop solution was added thereto, and the absorbance at 570 nm was measured using a microplate reader. The results are indicated relative to the absorbance of control cells defined as 100%.
LDH release was measured after hypoxia for 18 hours (H18) and subsequent reoxygenation for 24 hours (R24). Cells placed under normoxia for 42 (18+24) hours (N42) were used as a control. GR103691 was added immediately before reoxygenation (or after 18-hour culture to the control cells).
LDH release was measured after hypoxia for 18 hours (H18) and subsequent reoxygenation for 24 hours (R24). Cells placed under normoxia for 42 (18+24) hours (N42) were used as a control. Nafadotride was added immediately before reoxygenation (or after 18-hour culture for the control cells).

[3] = test system: HT22 cells; assay: Glutamic acid-induced cell death, MTT assay; format: cell-based; settings: MTT 24 hours after glutamic acid, added immediately before glutamic acid
Method: (§3) HT22 cells were cultured in DMEM containing 10% FBS in a 10% CO2 incubator at 37° C. MTT assay was conducted according to a ordinary method by using cells treated as intended as a sample. Specifically, the cells were cultured in a 96-well assay plate and treated as intended. Then, 10 μL of an MTT solution was added to each well, followed by incubation for 4 hours. 100 μL of a reaction stop solution was added thereto. The plate was left overnight, and the absorbance (measurement wavelength: 570 nm, control wavelength: 655 nm) was then measured using a microplate reader. The results are indicated relative to the absorbance of control cells defined as 100%. In this context, the MTT value is a value that indicates mitochondrial reductive capacity. This value correlates with cell viability in many cases and is therefore used as an index of cell viability. It has been confirmed as to the glutamic acid-induced cell death of HT22 cells that the results of MTT assay correlate with cell viability. MTT assay was conducted 24 hours after addition of glutamic acid. GR103691 was added immediately before the addition of glutamic acid (Glu).

[4] = test system: HT22 cells; assay: Tunicamycin-induced cell death, MTT assay; format: cell-based; settings: MTT 24 hours after tunicamycin, added immediately before tunicamycin
Method: as §3, with “tunicamycin (TM).” for “glutamic acid.”, “tunicamycin (TM).” for “glutamic acid (Glu).”

[5] = test system: HT22 cells; assay: Intracellular reactive oxygen species (ROS) assay with H2DCFDA after hypoxia-reoxygenation loading; format: cell-based; settings: 3 μM, added immediately before reoxygenation, hypoxia 18 h, reoxygenation 3 h
Method: as §1, §2
Intracellular ROS levels were measured by using H2DCFDA. Cells were treated as intended and then treated with 5 μM H2DCFDA. After 15 minutes, the cells were observed under a fluorescence microscope (480 nm/526 nm).
Time-dependent change of ROS was examined during reoxygenation for 12 hours after hypoxia for 18 hours (H18). Cells placed under normoxia for the same hours (N30) were used as a control. GR103691 was added at a concentration of 3 μM immediately before reoxygenation (or after 18-hour culture to the control cells).

[6] = 10 mg/kg from the tail vein within 10 minutes after reperfusion
[7] = 1, 3, or 10 mg/kg from the tail vein within 10 minutes after reperfusion
[8] = HT22 cells, added immediately before reoxygenation
[9] = HT22 cells, hypoxia 18 h, reoxygenation 24 h, added immediately before reoxygenation

| Structure (SMILES) | cell death in the hippocampal CA1 region (FJB-positive cells) [1, 6] | ssDNA-positive cells in the hippocampal CA1 region [1, 6] | cell death in the hippocampal CA1 region (FJB-positive cells) [1, 7] | ssDNA-positive cells in the hippocampal CA1 region [1, 7] | LDH release of the control cells ([2]; HT22 cells under normoxia 42 h (N42), added after 18-hour culture) | increase of LDH release caused by H18/R24 [2, 8] | LDH release of H18/R24-treated cells (hypoxia/reoxygenation-induced cell death) [2, 9] | concentration at which the reduction of LDH release of H18/R24-treated cells was significant [2, 9] [µM] | reduction of MTT value caused by glutamic acid (glutamic acid-induced cell death) [3] | reduction of MTT value caused by TM (tunicamycin-induced cell death) [4] | transient increase of ROS in H18/R3-treated cells (H2DCFDA-positive cells) [5] | decreasing effect on ssDNA-positive cells in the hippocampal CA1 region, compared with GR103691 ([1]; edaravone 3 or 10 mg/kg) | inhibitory effect on cell death in the hippocampal CA1 region (FJB-positive cells), compared with GR103691 ([1]; edaravone 3 or 10 mg/kg) |
| --- | --- | --- | --- | --- | --- | --- | --- | --- | --- | --- | --- | --- | --- |
| COc1ccccc1N1CCN(CCCCNC(=O)c2ccc(-c3ccc(C(C)=O)cc3)cc2)CC1 [GR103691, 4′-acetyl-N-[4-[4-(2-methoxyphenyl)-1-piperazinyl]butyl]-[1,1′-biphenyl]-4-carboxamide] | significantly inhibited | significantly decreased | inhibited such cell death in a dose-dependent manner | decreased by GR103691 in a dose-dependent manner | not influenced | almost the maximum effect | reduced the LDH release of the H18/R24-treated cells in a concentration-dependent manner | ≥ 1 | significantly recovered the reduction of MTT value | did not influence the reduction of MTT value | inhibited | – | – |
| CC1=NN(c2ccccc2)C(=O)C1 [edaravone, reference compound] | – | – | – | – | – | – | – | – | – | – | – | almost the same level | almost the same level |
| CCCCN1CCCC1CNC(=O)c1cc(C#N)c2ccccc2c1OC (centres unmarked) [nafadotride, reference compound] | – | – | – | – | – | did not inhibit apoptosis; also recorded: did not influence increase of LDH release | – | – | – | – | – | – | – |
